Experimental data reported in the NIST ThermoML archive (doi:10.1016/j.tca.2007.01.009).

Test: wn = mass fraction of the nth substance listed
Details: 101 kPa, Crystal, Hot wire method

[Pb] [lead] + [Cd]
thermal conductivity [W/m/K]
Details	323.15 K	373.15 K	423.15 K	473.15 K	513.15 K
w2 = 0.033	38.36	35.94	30.79	30.37	27.68
w2 = 0.174	62.77	53.14	44.49	39.96	37.25
w2 = 0.9975	105.18	86.06	71.06	69.38	61.22

[Zn] [zinc] + [Sn]
thermal conductivity [W/m/K]
Details	323.15 K	373.1 K	423.15 K	463.15 K
w1 = 0.01	78.49	73.59	66.89	71.08
w1 = 0.089	86.39	81.42	79.04	75.42
